Reference: patent EP0428104A2, “Treatment of multi-drug resistant tumors with pyridyloxazole-2-ones” (MERRELL DOW PHARMACEUTICALS INC., priority 1989, dated 1991)

System: CHO^R cells
Experiment: Reversal of multidrug resistance: cell growth in vinblastine resistant tumor cell line, cell number by Coulter counter
Type: cell-based
Conditions: 72 hr
Method: CHO^R cells were plated at a density of 1X10⁵/35mm dish and were allowed to grow overnight at 37°C in a CO₂ incubator. The medium was replaced with medium containing the compounds and vinblastine (0.2 µg/ml). The cells were allowed to grow for further 72 hr and the cell number was determined by Coulter counter after trypsinization. […]

Structure (SMILES) | % Inhibition of Cell Growth Compound + VLB (compound 0.1 µg/ml plus vinblastine 0.2 µg/ml) | inhibition at 0.1 µg/mL (compound 0.1 µg/ml, without VLB, read-out: % Inhibition of Cell Growth Compound Only) | % Inhibition of Cell Growth Compound + VLB (compound 1 µg/ml plus vinblastine 0.2 µg/ml) | inhibition at 1 µg/mL (compound 1 µg/ml, without VLB, read-out: % Inhibition of Cell Growth Compound Only) | % Inhibition of Cell Growth Compound + VLB (compound 10 µg/ml plus vinblastine 0.2 µg/ml) | inhibition at 10 µg/mL (compound 10 µg/ml, without VLB, read-out: % Inhibition of Cell Growth Compound Only) | effect on cell growth (VLB alone at 0.2 µg/ml)
CCCc1[nH]c(=O)oc1-c1ccncc1 [4-PROPYL-5(4-PYRIDINYL)-2(3H)-OXAZOLONE, 4-propyl-5-(4-pyridinyl)-2(3H)-oxazolone] | 6% | 0% | 22% | 0% | 82% | 55% | –
CC[C@]1(O)C[C@@H]2CN(CCc3c([nH]c4ccccc34)[C@@](C(=O)OC)(c3cc4c(cc3OC)N(C)[C@H]3[C@@](O)(C(=O)OC)[C@H](OC(C)=O)[C@]5(CC)C=CCN6CC[C@]43[C@@H]65)C2)C1 [VLB, vinblastine, reference compound] | – | – | – | – | – | – | did not have any effect on cell growth
